Experimental data reported in US10947574B2, “Method for producing fermented carotenoid using carotenoid-producing bacteria obtained by using cobalt-containing culturing medium” (ENEOS CORPORATION, priority 2015, dated 2021).

Legend:
[1] = system: Paracoccus carotinifaciens strain E-396 (FERM BP-4283); test: Example 4: medium lots A-E with cobalt chloride, growth (OD610) and carotenoid levels (HPLC); type: cell-based; details: for Astaxanthin / OD610 / Total carotenoid: cobalt chloride added 0.1 mg/L (0.42 μmol/L)
Description: (§1) In the following examples, carotenoids were quantified by high performance liquid chromatography (HPLC) as follows.
(§2) Two columns of Inertsil SIL-100A, 5 μm (ϕ4.6 mm×250 mm) (GL Sciences Inc., Japan) were connected together for use as a column. For elution, a mixed solution of n-hexane, tetrahydrofuran and methanol (40:20:1) serving as a mobile phase was passed through the column at a flow rate of 1.0 mL per minute at a constant temperature around room temperature. For measurement, samples were each dissolved in tetrahydrofuran and diluted 100-fold with the mobile phase, and 20 μL aliquots of the resulting dilutions were injected into the column. The column eluates were detected at a wavelength of 470 nm. As a standard for quantification, astaxanthin (SIGMA, Cat. No. A9335) was used. The astaxanthin concentration of the standard solution was determined using the following equation after measuring the absorbance (A) of the standard solution at 477 nm and the area percentage % (B) of the astaxanthin peak in HPLC analysis under the above conditions.
Subsequently, medium ingredients from different manufacturers and lots were combined to prepare 5 types of media, i.e., A, B, C, D and E indicated in Table 7, each having the following composition (glucose 30 g/L, filtered corn steep liquor 30 g/L, ammonium sulfate 1.5 g/L, potassium dihydrogen phosphate 1.5 g/L, disodium hydrogen phosphate dodecahydrate 3.8 g/L, calcium chloride dihydrate 5.0 g/L, magnesium sulfate heptahydrate 0.7 g/L, iron sulfate heptahydrate 1.0 g/L, silicon-based defoaming agent 0.2 g/L). These media were each dispensed in 7.2 ml volumes into cotton-plugged test tubes having an inner diameter of 18 mm to prepare 2 test tubes for each test tube medium for production, i.e., 10 test tubes in total.
The resulting culture solution was then inoculated in 0.05 ml volumes into the 5 types of test tube media for production having different cobalt concentrations (10 test tubes in total), and cultured under shaking at 28° C. for 4 days at 300 spm.
After being cultured for 4 days, the culture solutions were each measured for microbial cell growth by OD610 and measure for carotenoid levels by HPLC.

[2] = system: Paracoccus carotinifaciens mutant strain CF-358; test: Example 5: 5 L fermenter culture with cobalt chloride, growth (OD610) and carotenoid levels (HPLC); type: cell-based
Description: as §1
as §2, with “conditions. […]” for “conditions.”
The ingredients used to prepare the seed flask medium were obtained from lots where microbial cells had been confirmed to grow well.
The resulting culture solution was then inoculated in 80 ml volumes into the individual fermenters, followed by aeration spinner culture at 28° C. under a gauge pressure of 0.01 MPa at an aeration volume of 1.5 vvm for 5 days. To maintain a pH of 7.2 during culture, 15% aqueous ammonia was automatically supplied. The number of spinner rotations was automatically varied such that the dissolved oxygen concentration in each culture solution was maintained at 2 to 4 ppm. An alcohol-based defoaming agent was automatically added to avoid bubbling.
At the completion of culture, the culture solutions were each measured for microbial cell growth by OD610 and measured for carotenoid levels by HPLC (Table 10).

[3] = medium lot A, total cobalt 0.42 μmol/L
[4] = medium lot B, total cobalt 0.62 μmol/L
[5] = medium lot C, total cobalt 0.46 μmol/L
[6] = medium lot D, total cobalt 0.43 μmol/L
[7] = medium lot E, total cobalt 0.49 μmol/L
[8] = final concentration of 0.1 mg/L, regardless of manufacturer and lot of medium ingredient
[9] = cobalt added 0.042 μmol/L, total 0.045 μmol/L
[10] = cobalt added 0.42 μmol/L, total 0.42 μmol/L
[11] = cobalt added 4.2 μmol/L, total 4.2 μmol/L
[12] = cobalt added 21 μmol/L, total 21 μmol/L

Structure (SMILES): O.O.O.O.O.O.[Cl-].[Cl-].[Co+2] [Cobalt chloride hexahydrate]
- Astaxanthin ([1]; Average of medium lots A-E): 28 mg/L
- OD610 ([1]; Average of medium lots A-E): 37
- Total carotenoid ([1]; Average of medium lots A-E): 41 mg/L
- Astaxanthin [1, 3]: 29 mg/L
- OD610 [1, 3]: 37
- Total carotenoid [1, 3]: 41 mg/L
- Astaxanthin [1, 4]: 26 mg/L
- OD610 [1, 4]: 39
- Total carotenoid [1, 4]: 40 mg/L
- Astaxanthin [1, 5]: 29 mg/L
- OD610 [1, 5]: 38
- Total carotenoid [1, 5]: 44 mg/L
- Astaxanthin [1, 6]: 27 mg/L
- OD610 [1, 6]: 36
- Total carotenoid [1, 6]: 41 mg/L
- Astaxanthin [1, 7]: 28 mg/L
- OD610 [1, 7]: 37
- Total carotenoid [1, 7]: 40 mg/L
- bacterial growth, in words [1, 8]: high
- carotenoid productivity, in words [1, 8]: high
- Carotenoid: 3-Hydroxyechinenone [2, 9]: 12 mg/L
- Carotenoid: Adonirubin [2, 9]: 273 mg/L
- Carotenoid: Adonixanthin [2, 9]: 45 mg/L
- Carotenoid: Astaxanthin [2, 9]: 775 mg/L
- Carotenoid: Asteroidenone [2, 9]: 11 mg/L
- Carotenoid: Canthaxanthin [2, 9]: 90 mg/L
- Carotenoid: Echinenone [2, 9]: 37 mg/L
- Carotenoid: β-Carotene [2, 9]: 58 mg/L
- OD610 [2, 9]: 194
- Total carotenoid [2, 9]: 1302 mg/L
- Total carotenoid/dry microbial cells [2, 9]: 41.9 mg/g
- Carotenoid: 3-Hydroxyechinenone [2, 10]: 12 mg/L
- Carotenoid: Adonirubin [2, 10]: 216 mg/L
- Carotenoid: Adonixanthin [2, 10]: 73 mg/L
- Carotenoid: Astaxanthin [2, 10]: 815 mg/L
- Carotenoid: Asteroidenone [2, 10]: 15 mg/L
- Carotenoid: Canthaxanthin [2, 10]: 74 mg/L
- Carotenoid: Echinenone [2, 10]: 37 mg/L
- Carotenoid: β-Carotene [2, 10]: 60 mg/L
- OD610 [2, 10]: 208
- Total carotenoid [2, 10]: 1303 mg/L
- Total carotenoid/dry microbial cells [2, 10]: 39.1 mg/g
- Carotenoid: 3-Hydroxyechinenone [2, 11]: 5 mg/L
- Carotenoid: Adonirubin [2, 11]: 285 mg/L
- Carotenoid: Adonixanthin [2, 11]: 18 mg/L
- Carotenoid: Astaxanthin [2, 11]: 580 mg/L
- Carotenoid: Asteroidenone [2, 11]: 3 mg/L
- Carotenoid: Canthaxanthin [2, 11]: 338 mg/L
- Carotenoid: Echinenone [2, 11]: 61 mg/L
- Carotenoid: β-Carotene [2, 11]: 29 mg/L
- OD610 [2, 11]: 191
- Total carotenoid [2, 11]: 1319 mg/L
- Total carotenoid/dry microbial cells [2, 11]: 43.2 mg/g
- Carotenoid: 3-Hydroxyechinenone [2, 12]: 4 mg/L
- Carotenoid: Adonirubin [2, 12]: 347 mg/L
- Carotenoid: Adonixanthin [2, 12]: 7 mg/L
- Carotenoid: Astaxanthin [2, 12]: 103 mg/L
- Carotenoid: Asteroidenone [2, 12]: 1 mg/L
- Carotenoid: Canthaxanthin [2, 12]: 431 mg/L
- Carotenoid: Echinenone [2, 12]: 103 mg/L
- Carotenoid: β-Carotene [2, 12]: 27 mg/L
- OD610 [2, 12]: 143
- Total carotenoid [2, 12]: 1023 mg/L
- Total carotenoid/dry microbial cells [2, 12]: 44.9 mg/g
- total carotenoid production level, in words ([2]; final concentration of 0.042 to 21 μmol/L): high
